≈ marks a conversion by molar mass, not a printed value. Like-named read-outs stand apart in the source and are kept apart here.
Key:
Format in all cases: cell-based
Enterobacter cloacae = test: MIC against clinically isolated aerobic Gram-negative strains; settings: 29 strains
Escherichia coli 1507E = test: MIC against standard strains (agar dilution); settings: standard strain Escherichia coli 1507E, 37° C., 18 to 20 hours, read-out: Minimum Inhibitory Concentration (MIC)
Salmonella typhimurium = test: MIC against standard strains (agar dilution); settings: Salmonella enterica, standard strain Salmonella typhimurium, 37° C., 18 to 20 hours, read-out: Minimum Inhibitory Concentration (MIC)
[1] = tested on: Streptococcus faecium MD 8b; test: MIC against standard strains (agar dilution); settings: Enterococcus faecium, MD8B, standard strain Streptococcus faecium MD 8b, 37° C., 18 to 20 hours, read-out: Minimum Inhibitory Concentration (MIC)
[2] = tested on: Pseudomonas aeruginosa 1771; test: MIC against standard strains (agar dilution); settings: standard strain Pseudomonas aeruginosa 1771, 37° C., 18 to 20 hours, read-out: Minimum Inhibitory Concentration (MIC)
Streptococcus pneumoniae = test: MIC against clinically isolated aerobic Gram-positive strains; settings: 22 strains
Klebsiella pneumoniae = test: MIC against clinically isolated aerobic Gram-negative strains; settings: 30 strains
Streptococcus pyogenes = test: MIC against clinically isolated aerobic Gram-positive strains; settings: 15 strains
Moraxella catarrhalis = test: MIC against clinically isolated aerobic Gram-negative strains; settings: 24 strains
Enterobacter cloacae P99 = test: MIC against standard strains (agar dilution); settings: standard strain Enterobacter cloacae P99, 37° C., 18 to 20 hours, read-out: Minimum Inhibitory Concentration (MIC)
Clostridium perfringens = test: microbe, parasite or virus in culture; settings: for MIC50 / MIC90: Clostridium perfringens; for MIC Range: clinically isolated anaerobic Clostridium perfringens, 13 strains
Clostridium difficile = test: MIC against clinically isolated anaerobic Gram-positive strains; settings: 15 strains; for MIC50 / MIC90: Clostridioides difficile
Experimental: The in vitro antibacterial activities of the sodium 3-carboxylate compound of the present invention prepared in the above Example were measured against standard strains (Table 1), clinically isolated aerobic Gram-positive strains (Table 2), clinically isolated aerobic Gram-negative strains (Table 3), clinically isolated anaerobic Gram-positive strains (Table 4) and clinically isolated anaerobic Gram-negative strains (Table 5) using Gram-positive bacteria such as Streptococcus and Staphylococcus, Gram-negative bacteria such as Escherichia, Salmonella, Krebsiella and Enterobacter. Imipenem (IPM), meropenem (MPM) and ertapenem (EPM) were used as control groups.
The results are shown in Tables 1 to 5, and MIC50 and MIC90 represent the concentrations at which the test strain's growth was inhibited to the extents of 50% and 90%, respectively.

Enterococcus faecium = test: MIC against clinically isolated aerobic Gram-positive strains
[3] = tested on: Streptococcus pyogenes 77A; test: MIC against standard strains (agar dilution); settings: standard strain Streptococcus pyogenes 77A, 37° C., 18 to 20 hours, read-out: Minimum Inhibitory Concentration (MIC)
Escherichia coli DC 2 = test: MIC against standard strains (agar dilution); settings: Escherichia coli, DC2, read-out: Minimum Inhibitory Concentration (MIC)
Enterobacter aerogenes = test: MIC against clinically isolated aerobic Gram-negative strains; settings: 14 strains; for MIC50 / MIC90: Klebsiella aerogenes
[4] = tested on: Methicillin-sensitive Staphylococcus aureus; test: MIC against clinically isolated aerobic Gram-positive strains; settings: 33 strains
Escherichia coli = test: MIC against clinically isolated aerobic Gram-negative strains; settings: 30 strains
Providentia sp. = test: as above; settings: 13 strains
Bacteroides spp. = test: MIC against clinically isolated anaerobic Gram-negative strains; settings: 11 strains
[5] = tested on: Pseudomonas aeruginosa 9027; test: MIC against standard strains (agar dilution); settings: standard strain Pseudomonas aeruginosa 9027, 37° C., 18 to 20 hours, read-out: Minimum Inhibitory Concentration (MIC)
[6] = tested on: Staphylococcus aureus 503; test: MIC against standard strains (agar dilution); settings: standard strain Staphylococcus aureus 503, 37° C., 18 to 20 hours, read-out: Minimum Inhibitory Concentration (MIC)
Escherichia coli DC 0 = test: MIC against standard strains (agar dilution); settings: DC0, standard strain Escherichia coli DC 0, 37° C., 18 to 20 hours, read-out: Minimum Inhibitory Concentration (MIC)
[7] = tested on: Pseudomonas aeruginosa 1592E; test: MIC against standard strains (agar dilution); settings: standard strain Pseudomonas aeruginosa 1592E, 37° C., 18 to 20 hours, read-out: Minimum Inhibitory Concentration (MIC)
[8] = tested on: Staphylococcus aureus SG511; test: MIC against standard strains (agar dilution); settings: standard strain Staphylococcus aureus SG511, 37° C., 18 to 20 hours, read-out: Minimum Inhibitory Concentration (MIC)
Peptostreptococcus spp. = test: MIC against clinically isolated anaerobic Gram-positive strains; settings: 27 strains
Citrobacter freundii = test: MIC against clinically isolated aerobic Gram-negative strains; settings: 14 strains

## C[C@@H](O)[C@H]1C(=O)N2C(C(=O)O)=C(S[C@@H]3CN[C@H](C(=O)N(C)C)C3)[C@H](C)[C@H]12 [MPM, meropenem]
Enterobacter cloacae
  MIC50: 0.03 µg/mL (≈ 0.0782 µM)
  MIC90: 0.25 µg/mL (≈ 0.652 µM)
  MIC Range: 0.015 to 0.5 µg/mL
Escherichia coli 1507E
  MIC: 0.025 µg/mL (≈ 0.0652 µM)
Salmonella typhimurium
  MIC: 0.049 µg/mL (≈ 0.128 µM)
[1]
  MIC: 12.5 µg/mL (≈ 32.6 µM)
[2]
  MIC: 0.391 µg/mL (≈ 1.02 µM)
Streptococcus pneumoniae
  MIC50: 0.5 µg/mL (≈ 1.3 µM)
  MIC90: 0.5 µg/mL (≈ 1.3 µM)
  MIC Range: 0.008 to 0.5 µg/mL
Klebsiella pneumoniae
  MIC50: 0.03 µg/mL (≈ 0.0782 µM)
  MIC90: 0.06 µg/mL (≈ 0.156 µM)
  MIC Range: 0.015 to 0.06 µg/mL
Streptococcus pyogenes
  MIC50: < 0.008 µg/mL
  MIC90: < 0.008 µg/mL
  MIC Range: <0.008 µg/mL
Moraxella catarrhalis
  MIC50: 0.008 µg/mL (≈ 0.0209 µM)
  MIC90: 0.008 µg/mL (≈ 0.0209 µM)
  MIC Range: 0.008 to 0.03 µg/mL
Enterobacter cloacae P99
  MIC: 0.049 µg/mL (≈ 0.128 µM)
Clostridium perfringens
  MIC50: < 0.06 µg/mL
  MIC90: < 0.06 µg/mL
  MIC Range: <0.06 µg/mL
Clostridium difficile
  MIC Range: 1 to 2 µg/mL
  MIC50: 1 µg/mL (≈ 2.61 µM)
  MIC90: 2 µg/mL (≈ 5.22 µM)
Enterococcus faecium; Enterococcus faecium
  MIC50: 128 µg/mL (≈ 334 µM)
  MIC90: 128 µg/mL (≈ 334 µM)
[3]
  MIC: 0.007 µg/mL (≈ 0.0183 µM)
Escherichia coli DC 2
  MIC: 0.025 µg/mL (≈ 0.0652 µM)
Enterobacter aerogenes
  MIC Range: 0.015 to 0.06 µg/mL
  MIC50: 0.03 µg/mL (≈ 0.0782 µM)
  MIC90: 0.06 µg/mL (≈ 0.156 µM)
[4]
  MIC50: 0.12 µg/mL (≈ 0.313 µM)
  MIC90: 0.12 µg/mL (≈ 0.313 µM)
  MIC Range: 0.06 to 0.25 µg/mL
Escherichia coli
  MIC50: 0.015 µg/mL (≈ 0.0391 µM)
  MIC90: 0.03 µg/mL (≈ 0.0782 µM)
  MIC Range: 0.008 to 0.5 µg/mL
Providentia sp.
  MIC50: 0.06 µg/mL (≈ 0.156 µM)
  MIC90: 2 µg/mL (≈ 5.22 µM)
  MIC Range: 0.015 to 2 µg/mL
Bacteroides spp.
  MIC50: 0.5 µg/mL (≈ 1.3 µM)
  MIC90: 0.5 µg/mL (≈ 1.3 µM)
  MIC Range: 0.12 to 0.5 µg/mL
[5]
  MIC: 0.195 µg/mL (≈ 0.509 µM)
[6]
  MIC: 0.098 µg/mL (≈ 0.256 µM)
Escherichia coli DC 0
  MIC: 0.025 µg/mL (≈ 0.0652 µM)
[7]
  MIC: 0.098 µg/mL (≈ 0.256 µM)
[8]
  MIC: 0.098 µg/mL (≈ 0.256 µM)
Peptostreptococcus spp.
  MIC50: 0.06 µg/mL (≈ 0.156 µM)
  MIC90: 4 µg/mL (≈ 10.4 µM)
  MIC Range: 0.06 to 4 µg/mL
Citrobacter freundii
  MIC50: 0.015 µg/mL (≈ 0.0391 µM)
  MIC90: 0.03 µg/mL (≈ 0.0782 µM)
  MIC Range: 0.015 to 0.06 µg/mL

## C[C@@H](O)[C@H]1C(=O)N2C(C(=O)O)=C(SCCN=CN)C[C@H]12 [IPM, Imipenem]
Enterobacter cloacae
  MIC50: 0.25 µg/mL (≈ 0.835 µM)
  MIC90: 1 µg/mL (≈ 3.34 µM)
  MIC Range: 0.12 to 1 µg/mL
Escherichia coli 1507E
  MIC: 0.098 µg/mL (≈ 0.327 µM)
Salmonella typhimurium
  MIC: 0.781 µg/mL (≈ 2.61 µM)
[1]
  MIC: 0.781 µg/mL (≈ 2.61 µM)
[2]
  MIC: 0.781 µg/mL (≈ 2.61 µM)
Streptococcus pneumoniae
  MIC50: 0.12 µg/mL (≈ 0.401 µM)
  MIC90: 0.25 µg/mL (≈ 0.835 µM)
  MIC Range: 0.008 to 0.5 µg/mL
Klebsiella pneumoniae
  MIC50: 0.12 µg/mL (≈ 0.401 µM)
  MIC90: 0.5 µg/mL (≈ 1.67 µM)
  MIC Range: 0.06 to 1 µg/mL
Streptococcus pyogenes
  MIC50: < 0.008 µg/mL
  MIC90: < 0.008 µg/mL
  MIC Range: <0.008 µg/mL
Moraxella catarrhalis
  MIC50: 0.06 µg/mL (≈ 0.2 µM)
  MIC90: 0.06 µg/mL (≈ 0.2 µM)
  MIC Range: 0.008 to 0.25 µg/mL
Enterobacter cloacae P99
  MIC: 0.098 µg/mL (≈ 0.327 µM)
Clostridium perfringens
  MIC50: 0.06 µg/mL (≈ 0.2 µM)
  MIC90: 0.12 µg/mL (≈ 0.401 µM)
  MIC Range: 0.06 to 0.12 µg/mL
Clostridium difficile
  MIC Range: 4 to 16 µg/mL
  MIC50: 8 µg/mL (≈ 26.7 µM)
  MIC90: 8 µg/mL (≈ 26.7 µM)
Enterococcus faecium; clinically isolated Enterococcus faecium, 29 strains
  MIC Range: 2 to 128 µg/mL
Enterococcus faecium; clinically isolated Enterococcus faecium, 29 strains, read-out: MIC50
  MIC50: 128 µg/mL (≈ 428 µM)
Enterococcus faecium; clinically isolated Enterococcus faecium, 29 strains, read-out: MIC90
  MIC90: 128 µg/mL (≈ 428 µM)
[3]
  MIC: < 0.002 µg/mL
Escherichia coli DC 2
  MIC: 0.195 µg/mL (≈ 0.651 µM)
Enterobacter aerogenes
  MIC Range: 0.12 to 0.5 µg/mL
  MIC50: 0.12 µg/mL (≈ 0.401 µM)
  MIC90: 0.5 µg/mL (≈ 1.67 µM)
[4]
  MIC50: 0.015 µg/mL (≈ 0.0501 µM)
  MIC90: 0.03 µg/mL (≈ 0.1 µM)
  MIC Range: 0.015 to 0.06 µg/mL
Escherichia coli
  MIC50: 0.12 µg/mL (≈ 0.401 µM)
  MIC90: 0.5 µg/mL (≈ 1.67 µM)
  MIC Range: 0.06 to 1 µg/mL
Providentia sp.
  MIC50: 2 µg/mL (≈ 6.68 µM)
  MIC90: 2 µg/mL (≈ 6.68 µM)
  MIC Range: 0.25 to 4 µg/mL
Bacteroides spp.
  MIC50: 0.5 µg/mL (≈ 1.67 µM)
  MIC90: 1 µg/mL (≈ 3.34 µM)
  MIC Range: 0.25 to 2 µg/mL
[5]
  MIC: 0.391 µg/mL (≈ 1.31 µM)
[6]
  MIC: 0.007 µg/mL (≈ 0.0234 µM)
Escherichia coli DC 0
  MIC: 0.195 µg/mL (≈ 0.651 µM)
[7]
  MIC: 0.781 µg/mL (≈ 2.61 µM)
[8]
  MIC: 0.013 µg/mL (≈ 0.0434 µM)
Peptostreptococcus spp.
  MIC50: 0.06 µg/mL (≈ 0.2 µM)
  MIC90: 2 µg/mL (≈ 6.68 µM)
  MIC Range: 0.06 to 2 µg/mL
Citrobacter freundii
  MIC50: 0.12 µg/mL (≈ 0.401 µM)
  MIC90: 0.5 µg/mL (≈ 1.67 µM)
  MIC Range: 0.06 to 0.5 µg/mL

— patent publication US20080039438A1, “1B-Methylcarbapenem Derivative and Process for the Preparation Thereof” (Korea Institute of Science and Technology, priority 2004, published 2008)
